For ten compounds, IC50 results are on record in patent US8895558B2, “Arylpiperazine-containing pyrrole 3-carboxamide derivatives for treating depressive disorders” (Green Cross Corporation, priority 2008, dated 2014).

Counter-ions that a name gives are not always drawn.

Assay [1] has as its target T1, human recombinant serotonin 5-HT2A receptor (Homo sapiens, UniProt P28223).
T1 construct: purchased PerkinElmer Life and Analytical Sciences, USA; host or cells: CHO-K1
The assay can be described thus: Binding affinity for serotonin 5-HT2A receptor ([3H]Ketanserin). Conditions: CHO-K1 expressed receptor, 1 nM [3H]Ketanserin. The gist of the method: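 Membranes from CHO-K1 cells expressing recombinant receptor (5 ug/well) incubated 60 min at 27 with 1 nM [3H]ketanserin in 50 mM Tris-HCl pH 7.4, 4 mM CaCl2, 0.1% ascorbic acid; mianserin 20 uM defined nonspecific binding. Filtration and counting; IC50 by nonlinear regression over 7-8 concentrations in duplicate.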

In assay [2] the target is T2, human recombinant 5-HT2C receptor (Homo sapiens, UniProt P28335).
T2 construct: purchased PerkinElmer
T2 sequence (P28335 33-458): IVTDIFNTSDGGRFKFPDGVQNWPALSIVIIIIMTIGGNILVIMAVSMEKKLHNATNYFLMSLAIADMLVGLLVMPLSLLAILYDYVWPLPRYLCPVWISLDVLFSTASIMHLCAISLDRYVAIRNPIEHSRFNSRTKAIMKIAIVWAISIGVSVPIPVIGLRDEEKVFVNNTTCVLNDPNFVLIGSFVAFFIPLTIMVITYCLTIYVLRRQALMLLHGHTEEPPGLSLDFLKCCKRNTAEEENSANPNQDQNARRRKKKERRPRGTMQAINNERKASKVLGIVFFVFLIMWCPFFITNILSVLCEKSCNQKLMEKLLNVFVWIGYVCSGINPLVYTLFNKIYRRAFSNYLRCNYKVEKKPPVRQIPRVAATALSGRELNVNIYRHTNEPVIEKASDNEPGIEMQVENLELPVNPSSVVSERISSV
The assay can be described thus: Binding affinity for serotonin 5-HT2C receptor ([3H]Mesulergine). The conditions noted are these: CHO-K1 membranes, 1.3 nM [3H]Mesulergine. The gist of the method: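 Competition binding with [3H]mesulergine; nonspecific binding defined with 100 uM mianserin. Incubation 60 min at 27, stopped by rapid filtration onto glass fiber filters presoaked in 0.5% PEI.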

Assay [3] has as its target T3, human serotonin transporter (Homo sapiens, UniProt P31645).
T3 construct: purchased PerkinElmer; host or cells: HEK-293
Description: Binding affinity for serotonin transporter ([3H]Imipramine). The conditions noted are these: HEK-293 membranes, 2 nM [3H]Imipramine. The gist of the method:
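Membranes from HEK-293 cells expressing human serotonin transporter (5 ug/well) incubated with compound and 2 nM [3H]imipramine in 50 mM Tris-HCl pH 7.4, 120 mM NaCl, 5 mM KCl, 30 min at 27. Bound ligand separated by filtration onto glass fiber filters presoaked in 0.5% PEI, washed with ice-cold Tris-HCl/0.9% NaCl.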

T3 sequence (P31645 whole entry): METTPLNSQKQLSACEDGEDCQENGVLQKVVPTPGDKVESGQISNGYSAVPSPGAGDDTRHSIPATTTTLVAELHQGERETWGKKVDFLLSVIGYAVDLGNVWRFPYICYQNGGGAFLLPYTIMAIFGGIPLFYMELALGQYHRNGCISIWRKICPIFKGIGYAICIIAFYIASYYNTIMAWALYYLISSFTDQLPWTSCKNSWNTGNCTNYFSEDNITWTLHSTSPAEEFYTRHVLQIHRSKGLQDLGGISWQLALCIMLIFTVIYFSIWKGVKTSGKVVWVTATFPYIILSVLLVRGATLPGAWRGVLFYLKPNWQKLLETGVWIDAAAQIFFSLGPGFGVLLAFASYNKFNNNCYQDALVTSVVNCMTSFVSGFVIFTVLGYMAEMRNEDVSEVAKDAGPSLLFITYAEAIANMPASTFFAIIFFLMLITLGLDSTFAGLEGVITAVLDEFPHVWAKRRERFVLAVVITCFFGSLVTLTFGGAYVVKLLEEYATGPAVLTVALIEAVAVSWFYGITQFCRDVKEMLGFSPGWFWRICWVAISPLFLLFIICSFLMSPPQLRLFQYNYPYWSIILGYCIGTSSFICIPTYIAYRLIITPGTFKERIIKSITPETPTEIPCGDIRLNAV
T1 sequence (P28223 whole entry): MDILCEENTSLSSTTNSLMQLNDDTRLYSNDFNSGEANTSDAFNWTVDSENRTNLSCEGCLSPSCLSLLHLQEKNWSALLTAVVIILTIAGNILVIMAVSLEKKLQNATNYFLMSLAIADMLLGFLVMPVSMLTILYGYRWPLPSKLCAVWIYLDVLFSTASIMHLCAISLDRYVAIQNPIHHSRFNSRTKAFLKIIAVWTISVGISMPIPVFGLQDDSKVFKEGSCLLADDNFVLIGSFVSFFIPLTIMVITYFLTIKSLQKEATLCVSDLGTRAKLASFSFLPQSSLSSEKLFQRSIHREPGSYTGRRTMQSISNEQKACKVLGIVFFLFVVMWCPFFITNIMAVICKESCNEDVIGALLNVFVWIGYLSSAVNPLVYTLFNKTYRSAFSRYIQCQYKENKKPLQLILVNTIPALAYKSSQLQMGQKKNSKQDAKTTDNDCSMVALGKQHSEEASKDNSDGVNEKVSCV

Turning to `CCCn1c(-c2ccccc2)cc(C(=O)NCCCN2CCN(c3cccc(Cl)c3Cl)CC2)c1C` [Example 12, N-(3-(4-(2,3-dichlorophenyl)piperazin-1-yl)propyl)-2-methyl-5-phenyl-1-propyl-1H-pyrrole-3-carboxamide], the IC50 (in general, the concentration that inhibits the measured activity by half) in assay [1] is 324 nM; in assay [2] it was 628 nM; in assay [3] it was 420 nM.

For `CCCn1c(-c2ccccn2)cc(C(=O)NCCCN2CCN(c3cccc(Cl)c3Cl)CC2)c1C` [Example 93, N-(3-(4-(2,3-dichlorophenyl)piperazin-1-yl)propyl)-2-methyl-1-propyl-5-(pyridin-2-yl)-1H-pyrrole-3-carboxamide dihydrochloride], the results for the IC50 in assay [1], in assay [2] and in assay [3] were 58 nM, 639 nM and 397 nM, respectively.

Take `CCCn1c(-c2cccnc2)cc(C(=O)NCCCN2CCN(c3cccc(Cl)c3Cl)CC2)c1C` [Example 101, N-(3-(4-(2,3-dichlorophenyl)piperazin-1-yl)propyl)-2-methyl-1-propyl-5-(pyridin-3-yl)-1H-pyrrole-3-carboxamide]: the values for the IC50 in assay [1], in assay [2] and in assay [3] were 46 nM, 344 nM and 133 nM, respectively.

As to `CCCCn1c(-c2ccccc2)cc(C(=O)NCCCN2CCN(c3cccc(Cl)c3Cl)CC2)c1C` [Example 71, 1-butyl-N-(3-(4-(2,3-dichlorophenyl)piperazin-1-yl)propyl)-2-methyl-5-phenyl-1H-pyrrole-3-carboxamide hydrochloride], the values for the IC50 in assay [1], in assay [2] and in assay [3] were 188 nM, 32 nM and 642 nM, respectively.

Consider `CCCn1c(-c2ccccc2)cc(C(=O)NCCN2CCN(c3cccc(Cl)c3Cl)CC2)c1C` [Example 39, N-(2-(4-(2,3-dichlorophenyl)piperazin-1-yl)ethyl)-2-methyl-5-phenyl-1-propyl-1H-pyrrole-3-carboxamide hydrochloride], for which the IC50 in assay [1] was found to be 408 nM; in assay [2], 310 nM; in assay [3] it was 32 nM.

With `Cc1c(C(=O)NCCCN2CCN(c3cccc(Cl)c3Cl)CC2)cc(-c2ccccc2)n1N1CCCCC1` [Example 13, N-(3-(4-(2,3-dichlorophenyl)piperazin-1-yl)propyl)-2-methyl-5-phenyl-1-(piperidin-1-yl)-1H-pyrrole-3-carboxamide], the IC50 was 67.1 nM in assay [1], 795 nM in assay [2] and 298 nM in assay [3].

With `Cc1[nH]c(-c2ccccc2)c(C)c1C(=O)NCCN1CCN(c2cccc(Cl)c2Cl)CC1` [Example 76, N-(2-(4-(2,3-dichlorophenyl)piperazin-1-yl)ethyl)-2,4-dimethyl-5-phenyl-1H-pyrrole-3-carboxamide hydrochloride], the IC50 in assay [1] worked out at 37 nM; in assay [2] it was 13 nM; in assay [3], 162 nM.

As for `CCCn1c(-c2ccccc2)cc(C(=O)NCCCN2CCN(c3ccccc3C#N)CC2)c1C` [Example 90, N-(3-(4-(2-cyanophenyl)piperazin-1-yl)propyl)-2-methyl-5-phenyl-1-propyl-1H-pyrrole-3-carboxamide hydrochloride], the IC50 in assay [1] was 269 nM; in assay [2], 637 nM; in assay [3], 223 nM.

Take `CCn1c(-c2ccccc2)cc(C(=O)NCCCN2CCN(c3cccc(Cl)c3Cl)CC2)c1C` [Example 11, N-(3-(4-(2,3-dichlorophenyl)piperazin-1-yl)propyl)-1-ethyl-2-methyl-5-phenyl-1H-pyrrole-3-carboxamide]: the IC50 is 376 nM in assay [1], 66 nM in assay [2] and 182 nM in assay [3].

For the compound `Cc1c(C(=O)NCCCN2CCN(c3cccc(Cl)c3Cl)CC2)c(C)n(C)c1-c1ccccc1` [Example 79, N-(3-(4-(2,3-dichlorophenyl)piperazin-1-yl)propyl)-1,2,4-trimethyl-5-phenyl-1H-pyrrole-3-carboxamide hydrochloride], the values for the IC50 in assay [1], in assay [2] and in assay [3] were 33 nM, 16 nM and 80 nM, respectively.
